According to US10981879B2, “Thioether triazolopyridine and triazolopyrimidine inhibitors of myeloperoxidase” (BRISTOL-MYERS SQUIBB COMPANY, priority 2014, dated 2021):
pIC50: −log10 of the molar value.

What follows are molecules tested against myeloperoxidase (MPO) (Homo sapiens (Human), UniProt P05164) (assay: MPO chlorination assay (APF)). Details: MPO chlorination assay, ranges given; read-out: MPO chlorination assay IC50.
Type: biochemical
Method: MPO chlorination activity was measured in 100 mM KPi (pH 7.4) by utilizing the non-fluorescent reagent Aminophenyl fluorescein (APF, Invitrogen catalog #A36003). APF is cleaved by (—OCl) to yield the fluorescent compound fluorescein. Reactions were carried out in 50 μL total volume by adding a 25 μL mixture of 200 pM myeloperoxidase and 120 mM NaCl to 100 nL inhibitor in 100% DMSO in a 384 well, non-binding surface clear bottom plate (CORNING® #3655). Enzyme, inhibitor, and chloride were preincubated for ten minutes at rt.
After the ten minute preincubation, 25 μL of an APF mixture containing […], 120 mM NaCl and 10 μM H2O2 was added to the plate using the internal dispensing system of a Hammatsu FDSS 6000. Kinetic determinations were carried out immediately on the FDSS 6000 (3 minute kinetic read, 1 read every second, ex: 485 nm, em: 535 nm). IC50 values for inhibitors were calculated by taking the slope of the linear portion of the kinetic measurement (20 seconds to ˜80-120 secs). […]
[formula] where A=minimal Y value (activity level of inhibited sample), B=maximal Y value (activity level of uninhibited sample), C=Log IC50, D=Hill Slope, x=concentration of inhibitor. EPX Bromination Assay

myeloperoxidase (MPO), sequence (P05164 49-745): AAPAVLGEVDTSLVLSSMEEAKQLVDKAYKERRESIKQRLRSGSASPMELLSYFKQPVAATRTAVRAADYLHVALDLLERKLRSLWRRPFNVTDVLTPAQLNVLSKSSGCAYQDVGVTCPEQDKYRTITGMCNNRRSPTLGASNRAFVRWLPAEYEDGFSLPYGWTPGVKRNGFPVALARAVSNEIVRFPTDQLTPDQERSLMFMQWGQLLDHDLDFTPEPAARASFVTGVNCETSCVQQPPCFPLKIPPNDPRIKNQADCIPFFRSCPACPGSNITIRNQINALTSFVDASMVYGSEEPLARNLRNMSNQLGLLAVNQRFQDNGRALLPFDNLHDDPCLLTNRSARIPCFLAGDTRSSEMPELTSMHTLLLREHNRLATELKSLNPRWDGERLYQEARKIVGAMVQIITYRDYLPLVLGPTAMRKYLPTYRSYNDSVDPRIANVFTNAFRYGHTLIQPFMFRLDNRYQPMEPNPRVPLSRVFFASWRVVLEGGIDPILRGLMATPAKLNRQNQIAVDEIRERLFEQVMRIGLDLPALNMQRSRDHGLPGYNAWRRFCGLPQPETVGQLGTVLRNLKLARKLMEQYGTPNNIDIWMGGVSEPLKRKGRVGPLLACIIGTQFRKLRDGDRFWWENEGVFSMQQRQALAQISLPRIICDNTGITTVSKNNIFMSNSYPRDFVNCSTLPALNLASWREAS

| Compound | pIC50 |
| --- | --- |
| Nc1cc(SCc2cn(-c3ccccc3)nc2C(F)F)c2nn[nH]c2n1 [Example 138, 7-(((3-(difluoromethyl)-1-phenyl-1H-pyrazol-4-yl)methyl)thio)-3H-[1,2,3]triazolo[4,5-b] pyridin-5-amine] | ≥ 7.22 |
| Nc1cc(SC(c2ccccc2)C(O)c2ccccc2)c2nn[nH]c2n1 (centres unmarked) [Example 46, 2-((5-amino-3H-[1,2,3]triazolo[4,5-b]pyridin-7-yl)thio)-1,2-diphenylethanol] | 6.70 to 7.22 |
| Nc1cc(SCc2cc(Cl)cc(S(N)(=O)=O)c2Cl)c2nn[nH]c2n1 [Example 118, 3-(((5-amino-3H-[1,2,3]triazolo[4,5-b]pyridin-7-yl)thio)methyl)-2,5-dichlorobenzenesulfonamide] | ≥ 7.22 |
| N#Cc1ccc(-c2ccncc2)c(CSc2cc(N)nc3[nH]nnc23)c1 [Example 130, 3-(((5-Amino-3H-[1,2,3]triazolo[4,5-b]pyridin-7-yl)thio)methyl)-4-(pyridin-4-yl)benzonitrile] | ≥ 7.22 |
| COC(=O)c1ncccc1CSc1cc(N)nc2[nH]nnc12 [Example 26, methyl 3-(((5-amino-3H-[1,2,3]triazolo[4,5-b]pyridin-7-yl)thio)methyl)picolinate] | 6.00 to 6.70 |
| CN(C)Cc1cccc(-n2cc(CSc3cc(N)nc4[nH]nnc34)c(C(F)F)n2)c1 [Example 148, 7-(((3-(difluoromethyl)-1-(3-((dimethylamino)methyl)phenyl)-1H-pyrazol-4-yl)methyl)thio)-3H-[1,2,3]triazolo [4,5-b]pyridin-5-amine] | ≥ 7.22 |
| Nc1cc(SCc2ccccc2Cl)c2nn[nH]c2n1 [Example 4, 7-((2-chlorobenzyl)thio)-3H-[1,2,3]triazolo [4,5-b]pyridin-5-amine] | ≥ 7.22 |
| Nc1cc(SC(C(=O)NCc2ccccc2)c2ccccc2)c2nn[nH]c2n1 (centres unmarked) [Example 127, 2-((5-Amino-3H-[1,2,3]triazolo[4,5-b]pyridin-7-yl)thio)-N-benzyl-2-phenylacetamide] | 6.00 to 6.70 |
| N#Cc1ncccc1CSc1cc(N)nc2[nH]nnc12 [Example 108, 3-(((5-amino-3H-[1,2,3]triazolo[4,5-b]pyridin-7-yl)thio)methyl)picolinonitrile] | 6.70 to 7.22 |
| Cc1ccc(-c2nc(CSc3cc(N)nc4[nH]nnc34)c(C)s2)cc1 [Example 22, 7-(((5-methyl-2-(p-tolyl)thiazol-4-yl)methyl)thio)-3H-[1,2,3]triazolo[4,5-b]pyridin-5-amine] | 6.70 to 7.22 |
| Cn1nc(-c2ccccc2)c(CSc2cc(N)nc3[nH]nnc23)c1Cl [Example 71, 7-(((5-chloro-1-methyl-3-phenyl-1H-pyrazol-4-yl)methyl)thio)-3H-[1,2,3] triazolo[4,5-b]pyridin-5-amine] | 6.00 to 6.70 |
| Cn1nc(-c2ccccc2)cc1CSc1cc(N)nc2[nH]nnc12 [Example 33, 7-(((1-methyl-3-phenyl-1H-pyrazol-5-yl)methyl)thio)-3H-[1,2,3]triazolo[4,5-b] pyridin-5-amine] | 6.70 to 7.22 |
| CC(Sc1cc(N)nc2[nH]nnc12)c1ccccc1C(F)(F)F (centres unmarked) [Example 30, 7-((1-(2-(trifluoromethyl)phenyl)ethyl)thio)-3H-[1,2,3]triazolo[4,5-b]pyridin-5-amine] | 6.70 to 7.22 |
| CN(C)CCNC(=O)c1ccccc1-n1cc(CSc2cc(N)nc3[nH]nnc23)c(C(F)F)n1 [Example 151, 2-(4-(((5-amino-3H-[1,2,3]triazolo[4,5-b]pyridin-7-yl)thio)methyl)-3-(difluoromethyl)-1H-pyrazol-1-yl)-N-(2-(dimethylamino)ethyl) benzamide] | ≥ 7.22 |
| Cc1nn(Cc2ccccc2)c(Cl)c1CSc1cc(N)nc2[nH]nnc12 [Example 76, 7-(((1-benzyl-5-chloro-3-methyl-1H-pyrazol-4-yl)methyl)thio)-3H-[1,2,3] triazolo[4,5-b]pyridin-5-amine] | 6.70 to 7.22 |
| Cn1ncc2c(CSc3nc(N)nc4[nH]nnc34)cccc21 [Example 162, 7-(((1-methyl-1H-indazol-4-yl)methyl)thio)-3H-[1,2,3]triazolo[4,5-d] pyrimidin-5-amine] | 6.00 to 6.70 |
| N#Cc1cc(F)ccc1CSc1cc(N)nc2[nH]nnc12 [Example 56, 2-(((5-amino-3H-[1,2,3]triazolo[4,5-b]pyridin-7-yl)thio)methyl)-5-fluorobenzonitrile] | ≥ 7.22 |
| Cn1nc(C2CC2)c(F)c1CSc1cc(N)nc2[nH]nnc12 [Example 16, 7-(((3-Cyclopropyl-4-fluoro-1-methyl-1H-pyrazol-5-yl)methyl)thio)-3H-[1,2,3]triazolo[4,5-b]pyridin-5-amine] | 6.70 to 7.22 |
| N#Cc1ccc(-n2cccn2)cc1CSc1cc(N)nc2[nH]nnc12 [Example 12, 2-(((5-Amino-3H-[1,2,3]triazolo[4,5-b]pyridin-7-yl)thio)methyl)-4-(1H-pyrazol-1-yl)benzonitrile] | ≥ 7.22 |

| Compound | pIC50 |
| --- | --- |
| Nc1cc(SCc2cn(-c3cnc(C(=O)N4CCC4)cn3)nc2C(F)F)c2nn[nH]c2n1 [Example 146] | 6.00 to 6.70 |
| Nc1nc(SCc2ccccc2-n2cccn2)c2nn[nH]c2n1 [Example 158, 7-((2-(1H-pyrazol-1-yl)benzyl)thio)-3H-[1,2,3] triazolo[4,5-d]pyrimidin-5-amine] | 6.00 to 6.70 |
| CS(=O)(=O)c1ccc(F)cc1CSc1cc(N)nc2[nH]nnc12 [Example 53, 7-((5-fluoro-2-(methylsulfonyl)benzyl)thio)-3H-[1,2,3]triazolo[4,5-b]pyridin-5-amine] | 6.70 to 7.22 |
| Nc1cc(SCc2cn(-c3ccccc3)nn2)c2nn[nH]c2n1 [Example 34, 7-(((1-phenyl-1H-1,2,3-triazol-4-yl)methyl)thio)-3H-[1,2,3]triazolo[4,5-b]pyridin-5-amine] | 6.70 to 7.22 |
| Nc1cc(SCc2c(F)ccc(Br)c2F)c2nn[nH]c2n1 [Example 43, 7-((3-bromo-2,6-difluorobenzyl)thio)-3H-[1,2,3]triazolo[4,5-b]pyridin-5-amine] | ≥ 7.22 |
| Cn1nc(C(F)(F)F)c(CSc2nc(N)nc3[nH]nnc23)c1F [Example 160, 7-(((5-fluoro-1-methyl-3-(trifluoromethyl)-1H-pyrazol-4-yl)methyl)thio)-3H-[1,2,3]triazolo[4,5-d] pyrimidin-5-amine] | 6.00 to 6.70 |
| CN(C)c1cc(-n2cc(CSc3cc(N)nc4[nH]nnc34)c(C(F)(F)F)n2)ccn1 [Example 141, 7-(((1-(2-(dimethylamino)pyridin-4-yl)-3-(trifluoromethyl)-1H-pyrazol-4-yl)methyl)thio)-3H-[1,2,3]triazolo [4,5-b]pyridin-5-amine] | ≥ 7.22 |
| N#Cc1c(Cl)cccc1CSc1cc(N)nc2[nH]nnc12 [Example 75, 2-(((5-amino-3H-[1,2,3]triazolo[4,5-b]pyridin-7-yl)thio)methyl)-6-chlorobenzonitrile] | 6.70 to 7.22 |
| Cn1nc(C2CC2)cc1CSc1nc(N)nc2[nH]nnc12 [Example 165, 7-(((3-cyclopropyl-1-methyl-1H-pyrazol-5-yl)methyl)thio)-3H-[1,2,3] triazolo[4,5-d]pyrimidin-5-amine] | 6.00 to 6.70 |
| CC1(NC(=O)c2ccc(F)c(CSc3cc(N)nc4[nH]nnc34)c2)CC1 [Example 55, 3-(((5-amino-3H-[1,2,3]triazolo[4,5-b]pyridin-7-yl)thio)methyl)-4-fluoro-N-(1-methylcyclopropyl) benzamide] | 6.00 to 6.70 |
| N#Cc1cccc(C2CC2)c1CSc1cc(N)nc2[nH]nnc12 [Example 89, 2-(((5-amino-3H-[1,2,3]triazolo[4,5-b]pyridin-7-yl)thio)methyl)-3-cyclopropylbenzonitrile] | 6.70 to 7.22 |
| Cc1cc(CSc2cc(N)nc3[nH]nnc23)n(C)n1 [Example 58, 7-(((1,3-dimethyl-1H-pyrazol-5-yl)methyl)thio)-3H-[1,2,3]triazolo[4,5-b] pyridin-5-amine] | 6.00 to 6.70 |
| Nc1cc(SCc2c(Cl)cccc2S(N)(=O)=O)c2nn[nH]c2n1 [Example 64, 2-(((5-amino-3H-[1,2,3]triazolo[4,5-b]pyridin-7-yl)thio)methyl)-3-chlorobenzenesulfonamide] | ≥ 7.22 |
| COC(=O)c1ccc(F)c(CSc2cc(N)nc3[nH]nnc23)c1 [Example 52, methyl 3-(((5-amino-3H-[1,2,3]triazolo[4,5-b]pyridin-7-yl)thio)methyl)-4-fluorobenzoate] | 6.70 to 7.22 |
| Nc1cc(SCc2cc(-c3ccccc3)on2)c2nn[nH]c2n1 [Example 101, 7-(((5-phenylisoxazol-3-yl)methyl)thio)-3H-[1,2,3] triazolo[4,5-b]pyridin-5-amine] | 6.70 to 7.22 |
| CS(=O)(=O)c1cccc(Cl)c1CSc1cc(N)nc2[nH]nnc12 [Example 102, 7-((2-chloro-6-(methylsulfonyl)benzyl)thio)-3H-[1,2,3]triazolo[4,5-b]pyridin-5-amine] | 6.70 to 7.22 |
| Nc1cc(SCc2cn(-c3ccnnc3)nc2C(F)F)c2nn[nH]c2n1 [Example 143] | 6.00 to 6.70 |
| CN(C)CCC(Sc1cc(N)nc2[nH]nnc12)c1ccccc1 (centres unmarked) [Example 44, 7-((3-(dimethylamino)-1-phenylpropyl)thio)-3H-[1,2,3]triazolo[4,5-b]pyridin-5-amine] | 6.70 to 7.22 |
| Nc1cc(SCc2ccccc2CN2CCC2)c2nn[nH]c2n1 [Example 95, 7-((2-(azetidin-1-ylmethyl)benzyl)thio)-3H-[1,2,3] triazolo[4,5-b]pyridin-5-amine] | 6.70 to 7.22 |
